Data from patent US7915291B2, “Hepatitis C virus inhibitors” (Bristol-Myers Squibb Company, priority 2002, dated 2011).
pIC50: −log10 of the molar value.

How the values were obtained:
[1] = target: T1, HCV NS3/4A protease complex, J4L6S strain (Hepatitis C virus genotype 1b, UniProt O92972, C1454S/C1711G); test: Recombinant HCV NS3/4A protease complex FRET peptide assay (J4L6S strain); format: biochemical, HCV genotype 1b
T1 construct: recombinant HCV NS3/4A protease complex (amino acids 1027 to 1711); inferred from pET21b vector and Ni-NTA purification; made in house; host or cells: Escherichia coli BL21 (DE3), pET21b
Excerpt: Recombinant HCV NS3/4A Protease Complex FRET Peptide Assay
The purpose of this in vitro assay was to measure the inhibition of HCV NS3 protease complexes, derived from the BMS, H77C or J416S strains, as described below, by compounds of the present invention. This assay provides an indication of how effective compounds of the present invention would be in inhibiting HCV proteolytic activity.
Serum from an HCV-infected patient was obtained from Dr. T. Wright, San Francisco Hospital. An engineered full-length cDNA (compliment deoxyribonucleic acid) template of the HCV genome (BMS strain) was constructed from DNA fragments obtained by reverse transcription-PCR(RT-PCR) of serum RNA (ribonucleic acid) and using primers selected on the basis of homology between other genotype 1a strains. From the determination of the entire genome sequence, a genotype 1a was assigned to the HCV isolate according to the classification of Simmonds et al. (See P Simmonds, Kans. Rose, S Graham, S W Chan, F McOmish, B C Dow, E A Follett, P L Yap and H Marsden, J. Clin. Microbiol., 31(6), 1493-1503 (1993)). […]

[2] = target: T2, human pancreatic chymotrypsin (Homo sapiens, UniProt P17538); test: Specificity assay, chymotrypsin; format: biochemical; conditions: 2 hr pre-incubation
T2 construct: purchased Sigma
Description: The specificities of compounds of the present invention were determined against a variety of serine proteases: human leukocyte elastase (HLE), porcine pancreatic elastase (PPE) and human pancreatic chymotrypsin and one cysteine protease: human liver cathepsin B. In all cases a 96-well plate format protocol using colorimetric p -nitroaniline (pNA) substrate specific for each enzyme was used as described previously (Patent WO 00/09543) with some modifications to the serine protease assays. All enzymes were purchased from Sigma while the substrates were from Bachem.
Each assay included a 2 hr enzyme-inhibitor pre-incubation at RT followed by addition of substrate and hydrolysis to ˜30% conversion as measured on a Spectramax Pro microplate reader. Compound concentrations varied from 100 to 0.4 μM depending on their potency. […]
The percentage of inhibition was calculated using the formula: [1−((UVinh−UVblank)/(UVctl−UVblank))]×100 […]

T2 sequence (P17538 19-263): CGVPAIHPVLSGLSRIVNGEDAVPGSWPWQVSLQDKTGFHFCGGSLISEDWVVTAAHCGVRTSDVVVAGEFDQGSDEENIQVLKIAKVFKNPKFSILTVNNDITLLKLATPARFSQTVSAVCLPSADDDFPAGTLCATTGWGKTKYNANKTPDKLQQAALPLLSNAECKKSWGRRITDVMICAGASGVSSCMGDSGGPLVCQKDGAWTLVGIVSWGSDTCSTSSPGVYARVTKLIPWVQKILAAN
T1 sequence (O92972 1027-1711 C1454S/C1711G, one chain of several): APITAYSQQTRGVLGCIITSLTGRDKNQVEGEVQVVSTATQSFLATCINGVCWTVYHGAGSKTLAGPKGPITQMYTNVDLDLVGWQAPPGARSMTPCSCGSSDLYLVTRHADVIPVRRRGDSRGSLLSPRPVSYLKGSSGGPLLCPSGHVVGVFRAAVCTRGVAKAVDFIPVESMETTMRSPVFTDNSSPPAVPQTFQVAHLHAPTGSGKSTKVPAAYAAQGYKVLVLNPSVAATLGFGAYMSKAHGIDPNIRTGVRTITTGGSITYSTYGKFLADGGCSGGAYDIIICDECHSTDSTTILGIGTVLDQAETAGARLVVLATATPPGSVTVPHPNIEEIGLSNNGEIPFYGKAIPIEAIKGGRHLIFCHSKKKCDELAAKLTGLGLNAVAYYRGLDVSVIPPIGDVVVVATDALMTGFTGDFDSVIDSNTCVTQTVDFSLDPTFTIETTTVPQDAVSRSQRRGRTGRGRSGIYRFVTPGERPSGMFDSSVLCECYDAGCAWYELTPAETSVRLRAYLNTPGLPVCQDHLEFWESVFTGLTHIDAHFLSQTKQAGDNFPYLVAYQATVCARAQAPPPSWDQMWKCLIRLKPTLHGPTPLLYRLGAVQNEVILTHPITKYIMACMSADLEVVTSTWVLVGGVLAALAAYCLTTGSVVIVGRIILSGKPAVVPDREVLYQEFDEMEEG

## C=C[C@@H]1C[C@]1(NC(=O)[C@@H]1C[C@@H](Oc2nc(C3CC3)cc3ccccc23)CN1C(=O)[C@@H](NC(=O)OC(C)(C)C)C(C)(C)C)C(=O)NS(=O)(=O)C1CC1 [Compound 34]
[1]
  pIC50: 8.54
[2]
  pIC50: < 3.70
